Measured values taken from US20240425500A1 (priority 2021, published 2024).

Each compound was assayed on Pythium ultimum (assay: Pythium ultimum / liquid culture (seedling damping off)). Conditions: Globisporangium ultimum, liquid culture in PDB, 24 °C, 2-3 days after application, read-out: control of Pythium ultimum (inhibition of growth, photometric) compared to untreated control.
Format: cell-based
Experimental: Pythium ultimum/Liquid Culture (Seedling Damping Off):
Mycelia fragments and oospores of a newly grown liquid culture of the fungus are directly mixed into nutrient broth (PDB potato dextrose broth). After placing a (DMSO) solution of test compound into a microtiter plate (96-well format), the nutrient broth containing the fungal mycelia/spore mixture is added. The test plates are incubated at 24° C. and the inhibition of growth is determined photometrically 2-3 days after application.
In the case of COC(=O)Nc1ccc(-c2cnc3ccc(C(=O)N(C)c4ccnc(C)c4)cn23)cc1 [Compound 12, methyl N-[4-[6-[methyl-(2-methyl-4-pyridyl)carbamoyl]imidazo [1,2-a]pyridin-3-yl]phenyl]carbamate], the inhibition at 20 ppm was ≥ 80%.
COC(=O)Nc1ccc(-c2cnc3ccc(C(=O)N(C)c4ccc(C)c(C)c4)cn23)cc1 [Compound 13, methyl N-[4-[6-[(3,4-dimethylphenyl)-methyl-carbamoyl]imidazo[1,2-a]pyridin-3-yl]phenyl]carbamate] was tested, and the inhibition at 20 ppm was ≥ 80%.
COC(=O)Nc1ccc(-c2cnc3ccc(C(=O)N(C)c4ccc(C)cc4)cn23)cc1 [Compound 16, methyl N-[4-[6-[methyl (p-tolyl)carbamoyl]imidazo [1,2-a]pyridin-3-yl]phenyl]carbamate] was tested, and the inhibition at 20 ppm was ≥ 80%.
In the case of COC(=O)Nc1ccc(-c2cnc3cc(C)c(C(=O)N(C)c4ccc(Cl)cc4)cn23)cc1 [Compound 18, methyl N-[4-[6-[(4-chlorophenyl)-methyl-carbamoyl]-7-methyl-imidazo[1,2-a]pyridin-3-yl]phenyl]carbamate], the inhibition at 20 ppm was ≥ 80%.
In the case of COC(=O)Nc1ccc(-c2cnc3ccc(C(=O)N(C)c4ccncc4)cn23)cc1 [Compound 24, methyl N-[4-[6-[methyl(4-pyridyl)carbamoyl]imidazo [1,2-a]pyridin-3-yl]phenyl]carbamate], the inhibition at 20 ppm was ≥ 80%.
COC(=O)Nc1ccc(-c2cnc3ccc(C(=O)N(CC4CC4)c4ccc(Cl)cc4)cn23)cc1 [Compound 28, methyl N-[4-[6-[(4-chlorophenyl)-(cyclopropylmethyl)carbamoyl]imidazo[1,2-a]pyridin-3-yl]phenyl]carbamate] was tested, and the inhibition at 20 ppm was ≥ 80%.
With COC(=O)Nc1ccc(-c2cnc3ccc(C(=O)N(CC(F)(F)F)c4ccc(Cl)cc4)cn23)cc1 [Compound 29, methyl N-[4-[6-[(4-chlorophenyl)-(2,2,2-trifluoroethyl)carbamoyl]imidazo [1,2-a]pyridin-3-yl]phenyl]carbamate] the inhibition at 20 ppm was ≥ 80%.
In the case of CCCN(C(=O)c1ccc2ncc(-c3ccc(NC(=O)OC)cc3)n2c1)c1ccc(Cl)cc1 [Compound 30, methyl N-[4-[6-[(4-chlorophenyl)-propyl-carbamoyl]imidazo[1,2-a]pyridin-3-yl]phenyl]carbamate], the inhibition at 20 ppm was ≥ 80%.
For C#CCN(C(=O)c1ccc2ncc(-c3ccc(NC(=O)OC)cc3)n2c1)c1ccc(Cl)cc1 [Compound 33, methyl N-[4-[6-[(4-chlorophenyl)-prop-2-ynyl-carbamoyl]imidazo[1,2-a]pyridin-3-yl]phenyl]carbamate], the inhibition at 20 ppm was ≥ 80%.
In the case of COC(=O)Nc1ccc(-c2cnc3cc(Br)c(C(=O)N(C)c4ccc(Cl)cc4)cn23)cc1 [Compound 34, methyl N-[4-[7-bromo-6-[(4-chlorophenyl)-methyl-carbamoyl]imidazo[1,2-a]pyridin-3-yl]phenyl]carbamate], the inhibition at 20 ppm was ≥ 80%.
COC(=O)Nc1ccc(-c2cnc3cc(OC)c(C(=O)N(C)c4ccc(Cl)cc4)cn23)cc1 [Compound 39, methyl N-[4-[6-[(4-chlorophenyl)-methyl-carbamoyl]-7-methoxy-imidazo[1,2-a]pyridin-3-yl]phenyl]carbamate] was tested, and the inhibition at 20 ppm was ≥ 80%.
COC(=O)Nc1ccc(-c2cnc3cc(C#N)c(C(=O)N(C)c4ccc(Cl)cc4)cn23)cc1 [Compound 41, methyl N-[4-[6-[(4-chlorophenyl)-methyl-carbamoyl]-7-cyano-imidazo[1,2-a]pyridin-3-yl]phenyl]carbamate] was tested, and the inhibition at 20 ppm was ≥ 80%.
COC(=O)Nc1ccc(-c2cnc3cc(F)c(C(=O)N(C)c4ccc(Cl)cc4)cn23)cc1 [Compound 42, methyl N-[4-[6-[(4-chlorophenyl)-methyl-carbamoyl]-7-fluoro-imidazo[1,2-a]pyridin-3-yl]phenyl]carbamate] was tested, and the inhibition at 20 ppm was ≥ 80%.
In the case of COC(=O)Nc1ccc(-c2cnc3ccc(C(=O)N(C)c4cccc(C)c4)cn23)cn1 [Compound 54, methyl N-[5-[6-[methyl(m-tolyl)carbamoyl]imidazo [1,2-a]pyridin-3-yl]-2-pyridyl]carbamate], the inhibition at 20 ppm was ≥ 80%.
